Converted amounts (≈) assume the structure as drawn.
Tests used:
Bacillus subtilis 168CA = assay: Minimum Inhibitory Concentration (MIC) testing, broth microdilution, Bacillus subtilis; assay type: cell-based; settings: Bacillus subtilis 168CA; for MIC: read-out: Bacillus subtilis MICs Activity
Method: (§1) Compounds of this invention were tested for antimicrobial activity by susceptibility testing in liquid media. MICs for compounds against each strain were determined by a broth microdilution method according to the National Committee for Clinical Laboratory Standards (NCCLS) guidelines. (NCCLS. 2000. Methods for dilution antimicrobial susceptibility tests for bacteria that grow aerobically—fifth edition. Approved standard M7-A5. NCCLS, Wayne, Pa.)
(§2) Briefly, test compounds are prepared in 100 μl of 1.6% DMSO solution in multiwell plates. Several bacterial colonies from a freshly streaked plate are transferred to an appropriate rich broth, such as Mueller Hinton. The cell suspension is adjusted to an optical density of 0.09 and further diluted 1:100 with warm 2× broth. This cell suspension is dispensed into the wells containing compound solution so that the final volume is 200 μl. The plates are incubated overnight (16-20 hours) at 37° C. and turbidity is scored by eye and quantified spectrophotometrically. The MIC is defined as the lowest concentration inhibiting visible growth.
Activities were scored as ‘A’ if the MIC was ≦8 micrograms/ml, ‘B’ if the MIC was 16 to 64 micrograms/ml and ‘C’ if the MIC was greater than 64 micrograms/ml.

[1] = test system: Staphylococcus aureus ATCC29213; assay: Minimum Inhibitory Concentration (MIC) testing, broth microdilution, Staphylococcus aureus; assay type: cell-based; settings: Staphylococcus aureus ATCC29213; for MIC: read-out: Staphylococcus aureus MICs Activity
Method: as §1, §2
Some of the compounds of the Examples were also tested for activity against the pathogenic organism Staphylococcus aureus ATCC29213. […] Activities were again scored as ‘A’ if the MIC was ≦8 micrograms/ml, ‘B’ if the MIC was 16 to 64 micrograms/ml and ‘C’ if the MIC was greater than 64 micrograms/ml.

Row | SMILES | MIC (Bacillus subtilis 168CA) | MIC [1] | Bacillus subtilis MICs Activity (Bacillus subtilis 168CA) | Staphylococcus aureus MICs Activity [1]
1 | NC(=O)c1c(F)ccc(OCc2csc(-c3ccccc3)n2)c1F [Example 233, 2,6-Difluoro-3-[(2-phenyl-1,3-thiazol-4-yl)methoxy]benzenecarboxamide] | < 8 µg/mL | < 8 µg/mL | – | –
2 | Cc1ccc2ccc(COc3ccc(F)c(C(N)=O)c3F)nc2c1 [Example 103, 3-(7-Methylquinolin-2-ylmethoxy)-2,6-difluoro-benzamide] | < 8 µg/mL | < 8 µg/mL | – | –
3 | CC/C=C\CCCCOc1cccc(C(N)=O)c1 [Example 52, 3-[(Z)-5-Octenyloxy]benzenecarboxamide] | < 8 µg/mL | < 8 µg/mL | – | –
4 | C=CCCCCOc1cccc(C(N)=O)c1 [Example 15, 3-(5-Hexenyloxy)benzenecarboxamide] | 16 to 64 µg/mL (≈ 73 to 292 µM) | 16 to 64 µg/mL (≈ 73 to 292 µM) | – | –
5 | Cc1ccc(-c2nc(COc3ccc(F)c(C(N)=O)c3F)co2)cc1 [Example 295, 2,6-Difluoro-3-(2-p-tolyl-oxazol-4-ylmethoxy)-benzamide] | < 8 µg/mL | < 8 µg/mL | – | –
6 | NC(=O)c1c(F)ccc(OCc2nc3cc([N+](=O)[O-])ccc3o2)c1F [Example 214, 2,6-Difluoro-3-[(5-nitro-1,3-benzoxazol-2-yl)methoxy]benzenecarboxamide] | 16 to 64 µg/mL (≈ 45.8 to 183 µM) | 16 to 64 µg/mL (≈ 45.8 to 183 µM) | – | –
7 | COc1ccc(-c2nc(COc3ccc(F)c(C(N)=O)c3F)sc2-c2ccccn2)cc1 [Example 125, 2,6-Difluoro-3-[4-(4-methoxy-phenyl)-5-pyridin-2-yl-thiazol-2-ylmethoxy]-benzamide] | < 8 µg/mL | < 8 µg/mL | – | –
8 | NC(=O)c1c(Cl)ccc(OCc2nc(-c3ccc(Cl)cc3)no2)c1F [Example 269, 6-Chloro-3-[3-(4-chloro-phenyl)-[1,2,4]oxadiazol-5-ylmethoxy]-2-fluoro-benzamide] | < 8 µg/mL | < 8 µg/mL | – | –
9 | NC(=O)c1c(F)ccc(OCc2coc(-c3ccc(Cl)cc3)n2)c1F [Example 294, 3-[2-(4-Chloro-phenyl)-oxazol-4-ylmethoxy]-2,6-difluoro-benzamide] | < 8 µg/mL | < 8 µg/mL | – | –
10 | NC(=O)c1c(F)ccc(OCc2nc(-c3ccc(Cl)cc3)c(Br)s2)c1F [Example 159, 3-[5-Bromo-4-(4-chloro-phenyl)-thiazol-2-ylmethoxy]-2,6-difluoro-benzamide] | < 8 µg/mL | < 8 µg/mL | – | –
11 | Cc1ccc(-c2nc(CCOc3ccc(F)c(C(N)=O)c3F)c(C)o2)cc1 [Example 333, 2,6-Difluoro-3-[2-(5-methyl-2-p-tolyl-oxazol-4-yl)-ethoxy]-benzamide] | < 8 µg/mL | < 8 µg/mL | – | –
12 | CC(C)=CCC/C(C)=C/CCC(C)COc1cccc(C(N)=O)c1 (stereo not shown) [Example 55, 3-{[(5E)-2,6,10-Trimethyl-5,9-undecadienyl]oxy}benzenecarboxamide] | < 8 µg/mL | < 8 µg/mL | – | –
13 | Cc1csc(COc2ccc(F)c(C(N)=O)c2F)c1 [Example 187, 2,6-Difluoro-3-[(4-methyl-2-thienyl)methoxy]benzenecarboxamide] | 16 to 64 µg/mL (≈ 56.5 to 226 µM) | 16 to 64 µg/mL (≈ 56.5 to 226 µM) | – | –
14 | CCCCCCOc1c(F)ccc(C(N)=O)c1F [Example 80, 2,4-Difluoro-3-(hexyloxy)benzenecarboxamide] | 16 to 64 µg/mL (≈ 62.2 to 249 µM) | 16 to 64 µg/mL (≈ 62.2 to 249 µM) | – | –
15 | Cc1cccc2ccc(COc3ccc(F)c(C(N)=O)c3F)nc12 [Example 146, 2,6-Difluoro-3-(8-methyl-quinolin-2-ylmethoxy)-benzamide] | < 8 µg/mL | 16 to 64 µg/mL (≈ 48.7 to 195 µM) | – | –
16 | NC(=O)c1c(F)ccc(OCc2csc3ccccc23)c1F [Example 202, 3-(1-Benzothiophen-3-ylmethoxy)-2,6-difluorobenzenecarboxamide] | < 8 µg/mL | 16 to 64 µg/mL (≈ 50.1 to 200 µM) | – | –
17 | Cc1ccc2oc(COc3ccc(F)c(C(N)=O)c3F)nc2c1 [Example 212, 2,6-Difluoro-3-[(5-methyl-1,3-benzoxazol-2-yl)methoxy]benzenecarboxamide] | < 8 µg/mL | 16 to 64 µg/mL (≈ 50.3 to 201 µM) | – | –
18 | CCCC(C)COc1cccc(C(N)=O)c1 (stereo not shown) [Example 39, 3-[(2-Methylpentyl)oxy]benzenecarboxamide] | 16 to 64 µg/mL (≈ 72.3 to 289 µM) | 16 to 64 µg/mL (≈ 72.3 to 289 µM) | – | –
19 | NC(=O)c1c(F)ccc(OCc2cccc(OC(F)(F)F)c2)c1F [Example 107, 2,6-Difluoro-3-(3-trifluoromethoxybenzyloxy)benzamide] | < 8 µg/mL | < 8 µg/mL | – | –
20 | CCCCCCOc1cc(F)cc(C(N)=O)c1 [Example 167, 3-Fluoro-5-hexyloxy benzamide] | 16 to 64 µg/mL (≈ 66.9 to 267 µM) | 16 to 64 µg/mL (≈ 66.9 to 267 µM) | – | –
21 | Cc1cccc(COc2ccc(F)c(C(N)=O)c2F)c1F [Example 128, 2,6-Difluoro-3-(2-fluoro-3-methyl-benzyloxy)-benzamide] | < 8 µg/mL | 16 to 64 µg/mL (≈ 54.2 to 217 µM) | – | –

Row | SMILES | MIC (Bacillus subtilis 168CA) | MIC [1] | Bacillus subtilis MICs Activity (Bacillus subtilis 168CA) | Staphylococcus aureus MICs Activity [1]
22 | CCCCOC(=O)COc1ccc(F)c(C(N)=O)c1F [Example 83, Butyl 2-[3-(aminocarbonyl)-2,4-difluorophenoxy]acetate] | < 8 µg/mL | 16 to 64 µg/mL (≈ 55.7 to 223 µM) | – | –
23 | CC(Oc1ccc(F)c(C(N)=O)c1F)c1nc2cc(Cl)ccc2s1 (stereo not shown) [Example 124, 3-[1-(5-Ohloro-benzothiazol-2-yl)-ethoxy]-2,6-difluoro-benzamide] | – | – | A (‘A’ if the MIC was ≦8 micrograms/ml) | A (‘A’ if the MIC was ≦8 micrograms/ml)
24 | C#CCCCCCCCCCOc1ccc(Cl)c(C(N)=O)c1 [Example 69, 2-Chloro-5-(10-undecynyloxy)benzenecarboxamide] | < 8 µg/mL | < 8 µg/mL | – | –
25 | C/C=C/COc1cccc(C(N)=O)c1 [Example 30, 3-[2-Butenyloxy]benzenecarboxamide] | > 64 µg/mL | > 64 µg/mL | – | –
26 | COc1ccc(-c2nc(COc3ccc(F)c(C(N)=O)c3F)sc2-c2nccs2)cc1 [Example 155, 2,6-Difluoro-3-[4′-(4-methoxy-phenyl)-[2,5′]bithiazolyl-2′-ylmethoxy]-benzamide] | < 8 µg/mL | < 8 µg/mL | – | –
27 | NC(=O)c1c(F)ccc(OCc2nc(-c3ccc(Cl)cc3)no2)c1Cl [Example 270, 2-Chloro-3-[3-(4-chloro-phenyl)-[1,2,4]oxadiazol-5-ylmethoxy]-6-fluoro-benzamide] | < 8 µg/mL | < 8 µg/mL | – | –
28 | COc1ccc(-c2nc(COc3ccc(F)c(C(N)=O)c3F)sc2-c2ccc(O)cc2)cc1 [Example 279, 2,6-Difluoro-3-[5-(4-hydroxy-phenyl)-4-(4-methoxy-phenyl)-thiazol-2-ylmethoxy]-benzamide] | < 8 µg/mL | < 8 µg/mL | – | –
29 | NC(=O)c1c(F)ccc(OCc2nc(-c3ccccc3)cs2)c1F [Example 235, 2,6-Difluoro-3-[(4-phenyl-1,3-thiazol-2-yl)methoxy]benzenecarboxamide] | < 8 µg/mL | < 8 µg/mL | – | –
30 | NC(=O)c1c(F)ccc(OCc2nc(-c3ccc(C(F)(F)F)cc3)no2)c1F [Example 243, 2,6-Difluoro-3-(3-[4-(trifluoromethyl)phenyl]-1,2,4-oxadiazol-5-ylmethoxy)benzenecarboxamide] | < 8 µg/mL | < 8 µg/mL | – | –
31 | CCCCCCCOc1cccc(C(N)=O)c1 [Example 24, 3-(Heptyloxy)benzenecarboxamide] | < 8 µg/mL | < 8 µg/mL | – | –
32 | NC(=O)c1c(F)ccc(OCc2nc(-c3cccnc3)no2)c1F [Example 262, 2,6-Difluoro-3-[3-(3-pyridinyl)-1,2,4-oxadiazol-5-yl]methoxybenzenecarboxamide] | 16 to 64 µg/mL (≈ 48.2 to 193 µM) | 16 to 64 µg/mL (≈ 48.2 to 193 µM) | – | –
33 | COc1ccc(-c2nc(COc3ccc(F)c(C(N)=O)c3F)sc2-c2cccnc2)cc1 [Example 121, 2,6-Difluoro-3-[4-(4-methoxy-phenyl)-5-pyridin-3-yl-thiazol-2-ylmethoxy]-benzamide] | < 8 µg/mL | < 8 µg/mL | – | –
34 | Cc1cccc(COc2ccc(F)c(C(N)=O)c2F)c1 [Example 195, 2,6-Difluoro-3-[(3-methylbenzyl)oxy]benzenecarboxamide] | < 8 µg/mL | 16 to 64 µg/mL (≈ 57.7 to 231 µM) | – | –
35 | CCCCCCCCCOc1ccc(Cl)c(C(N)=O)c1 [Example 68, 2-Chloro-5-(nonyloxy)benzenecarboxamide] | < 8 µg/mL | < 8 µg/mL | – | –
36 | CC(C)(C)c1ccc(-c2noc(COc3ccc(F)c(C(N)=O)c3F)n2)cc1 [Example 249, 3-(3-[4-(tert-Butyl)phenyl]-1,2,4-oxadiazol-5-ylmethoxy)-2,6-difluorobenzenecarboxamide] | < 8 µg/mL | < 8 µg/mL | – | –
37 | CCCCCCOCCOc1ccc(F)c(C(N)=O)c1F [Example 85, 2,6-Difluoro-3-[2-(hexyloxy)ethoxy]benzenecarboxamide] | < 8 µg/mL | < 8 µg/mL | – | –
38 | CCCCOC(=O)COc1cccc(C(N)=O)c1 [Example 41, Butyl 2-[3-(aminocarbonyl)phenoxy]acetate] | 16 to 64 µg/mL (≈ 63.7 to 255 µM) | 16 to 64 µg/mL (≈ 63.7 to 255 µM) | – | –
39 | COC(=O)c1cccc(COc2ccc(F)c(C(N)=O)c2F)c1 [Example 108, 3-(3-Carbamoyl-2,4-difluoro-phenoxymethyl)-benzoic acid methyl ester] | 16 to 64 µg/mL (≈ 49.8 to 199 µM) | 16 to 64 µg/mL (≈ 49.8 to 199 µM) | – | –
40 | NC(=O)c1c(F)ccc(OCc2nc3c(Cl)cccc3s2)c1F [Example 226, 3-[(4-Chloro-1,3-benzothiazol-2-yl)methoxy]-2,6-difluorobenzenecarboxamide] | 16 to 64 µg/mL (≈ 45.1 to 180 µM) | 16 to 64 µg/mL (≈ 45.1 to 180 µM) | – | –
41 | CCCCCCCCCOc1ccc(F)c(C(N)=O)c1 [Example 70, 2-Fluoro-5-(nonyloxy)benzenecarboxamide] | < 8 µg/mL | < 8 µg/mL | – | –

— patent publication US8088791B2, “Antibacterial agents” (Biots Scientific Management Pty Ltd, priority 2006, dated 2012)
